Assay results published in patent US20240182445A1 (ONO PHARMACEUTICAL CO., LTD., priority 2019, published 2024).

Target: T1, human TREK-1 (Homo sapiens, UniProt O95069)
T1 construct: expressed in transfected cells
T1 sequence (O95069 1-426): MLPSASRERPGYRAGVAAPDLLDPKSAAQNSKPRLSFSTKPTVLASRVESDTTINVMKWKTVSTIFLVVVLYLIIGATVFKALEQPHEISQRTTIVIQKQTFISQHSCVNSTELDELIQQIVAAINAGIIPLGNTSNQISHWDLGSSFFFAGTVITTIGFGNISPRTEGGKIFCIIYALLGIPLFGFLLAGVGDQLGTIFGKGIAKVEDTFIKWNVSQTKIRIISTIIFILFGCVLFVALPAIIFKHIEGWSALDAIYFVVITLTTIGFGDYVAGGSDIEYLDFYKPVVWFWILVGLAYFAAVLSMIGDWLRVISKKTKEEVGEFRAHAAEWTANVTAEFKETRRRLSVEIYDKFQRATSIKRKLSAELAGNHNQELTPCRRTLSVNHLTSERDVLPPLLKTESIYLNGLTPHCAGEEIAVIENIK
Test: TREK-1 Thallium (Tl+) flux assay, Method 1
Type: cell-based
Details: TREK-1 Thallium (Tl+) flux assay; values without footnote *12 are Method 1
Summary of the method: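 Readout: Thallos fluorescence ratio, taken 25 s post-thallium relative to the pre-thallium baseline average, then converted to % inhibition. Cells were CHO-K1 stably expressing human TREK-1, dye-loaded and exposed to test compound (vehicle 0.3% DMSO) for 10 min prior to thallium stimulation.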

| IC50 | SMILES |
| --- | --- |
| 160 nM | O=C(Nc1ncc(C#Cc2ccccc2)cc1F)c1c(Cl)cnn1CC1CCOCC1 [Compound 68, 4-chloro-N-(3-fluoro-5-(phenylethynyl)pyridin-2-yl)-1-((tetrahydro-2H-pyran-4-yl)methyl)-1H-pyrazole-5-carboxamide] |
| 160 nM | O=C(Nc1ncc(C#Cc2cccs2)cc1F)c1c(Cl)cnn1CC1CCOCC1 [Compound 69, 4-chloro-N-(3-fluoro-5-(thiophen-2-ylethynyl)pyridin-2-yl)-1-((tetrahydro-2H-pyran-4-yl)methyl)-1H-pyrazole-5-carboxamide] |
| 160 nM | CS(=O)(=O)N1CCC(n2ncc(Cl)c2C(=O)Nc2ncc(C#Cc3ccccc3)cc2F)CC1 [Compound 70, 4-chloro-N-(3-fluoro-5-(phenylethynyl)pyridin-2-yl)-1-(1-(methylsulfonyl)piperidin-4-yl)-1H-pyrazole-5-carboxamide] |
| 160 nM | CC(=O)N1CCC(n2ncc(Cl)c2C(=O)Nc2ncc(C#Cc3cccc(F)c3)cc2C)CC1 [Compound 71, 1-(1-acetylpiperidin-4-yl)-4-chloro-N-(5-((3-fluorophenyl)ethynyl)-3-methylpyridin-2-yl)-1H-pyrazole-5-carboxamide] |
| 160 nM | CC(=O)N1CCC(n2ncc(Cl)c2C(=O)Nc2ncc(C#Cc3cccc(F)c3)cc2C)CC1C (centres unmarked) [Compound 72, 1-(1-acetyl-2-methylpiperidin-4-yl)-4-chloro-N-(5-((3-fluorophenyl)ethynyl)-3-methylpyridin-2-yl)-1H-pyrazole-5-carboxamide] |
| 160 nM | CCNC(=O)N1CCC(n2ncc(Cl)c2C(=O)Nc2ncc(C#Cc3cccs3)cc2C)CC1 [Compound 73, 4-(4-chloro-5-((3-methyl-5-(thiophen-2-ylethynyl)pyridin-2-yl)carbamoyl)-1H-pyrazol-1-yl)-N-ethylpiperidine-1-carboxamide] |
| 160 nM | CCNC(=O)N1C[C@H]2C[C@H](n3ncc(Cl)c3C(=O)Nc3ncc(C#Cc4cccs4)cc3C)C[C@H]2C1 [Compound 74, (3aR,5s,6aS)-5-[4-chloro-5-({3-methyl-5-[(thiophen-2-yl)ethynyl]pyridin-2-yl}carbamoyl)-1H-pyrazol-1-yl]-N-ethylhexahydrocyclopenta[c]pyrrole-2(1H)-carboxamide] |
| 160 nM | CCNC(=O)N1CCC(n2ncc(Cl)c2C(=O)Nc2ncc(C#Cc3cccc(F)c3)cc2C)CC1 [Compound 75, 4-(4-chloro-5-((5-((3-fluorophenyl)ethynyl)-3-methylpyridin-2-yl)carbamoyl)-1H-pyrazol-1-yl)-N-ethylpiperidine-1-carboxamide] |
| 160 nM | Cc1cc(C#Cc2cccs2)cnc1NC(=O)c1c(Cl)cnn1CC1CCN(C(=O)C(C)C)CC1 [Compound 76, 4-chloro-1-((1-isobutyrylpiperidin-4-yl)methyl)-N-(3-methyl-5-(thiophen-2-ylethynyl)pyridin-2-yl)-1H-pyrazole-5-carboxamide] |
| 160 nM | Cc1cc(C#Cc2ccccc2)cnc1NC(=O)c1c(Cl)cnn1C(C)C1CCN(C(=O)OC(C)(C)C)CC1 (centres unmarked) [Compound 77, tert-butyl 4-(1-(4-chloro-5-((3-methyl-5-(phenylethynyl)pyridin-2-yl)carbamoyl)-1H-pyrazol-1-yl)ethyl)piperidine-1-carboxylate] |
| 160 nM | CC(C1CCN(C(=O)OC(C)(C)C)CC1)n1ncc(Cl)c1C(=O)Nc1ncc(C#Cc2ccccc2)cc1F (centres unmarked) [Compound 78, tert-butyl 4-(1-(4-chloro-5-((3-fluoro-5-(phenylethynyl)pyridin-2-yl)carbamoyl)-1H-pyrazol-1-yl)ethyl)piperidine-1-carboxylate] |
| 160 nM | Cc1cc(C#Cc2ccccc2)cnc1NC(=O)c1c(Cl)cnn1C1CCN(C(=O)C2CC2)C1 (centres unmarked) [Compound 79, 4-chloro-1-(1-(cyclopropanecarbonyl)pyrrolidin-3-yl)-N-(3-methyl-5-(phenylethynyl)pyridin-2-yl)-1H-pyrazole-5-carboxamide] |
| 160 nM | Cc1cc(C#Cc2ccccc2)cnc1NC(=O)c1c(Cl)cnn1C1CCN(C(=O)C2COCCO2)C1 (centres unmarked) [Compound 80, 1-(1-(1,4-dioxane-2-carbonyl)pyrrolidin-3-yl)-4-chloro-N-(3-methyl-5-(phenylethynyl)pyridin-2-yl)-1H-pyrazole-5-carboxamide] |
| 160 nM | Cc1cc(C#Cc2ccccc2)cnc1NC(=O)c1c(Cl)cnn1C1CN(C(=O)C2COCCO2)C1 (centres unmarked) [Compound 81, 1-(1-(1,4-dioxane-2-carbonyl)azetidin-3-yl)-4-chloro-N-(3-methyl-5-(phenylethynyl)pyridin-2-yl)-1H-pyrazole-5-carboxamide] |
| 160 nM | CC(=O)N1CC[C@H](Cn2ncc(Cl)c2C(=O)Nc2ncc(C#Cc3ccccc3)cc2C)[C@H](F)C1 [Compound 82, 1-(((3S,4R)-1-acetyl-3-fluoropiperidin-4-yl)methyl)-4-chloro-N-(3-methyl-5-(phenylethynyl)pyridin-2-yl)-1H-pyrazole-5-carboxamide] |
| 160 nM | CC(C)(C)OC(=O)N1CCC(C#N)(Cn2ncc(Cl)c2C(=O)Nc2ncc(C#Cc3ccccc3)cc2F)CC1 [Compound 83, tert-butyl 4-((4-chloro-5-((3-fluoro-5-(phenylethynyl)pyridin-2-yl)carbamoyl)-1H-pyrazol-1-yl)methyl)-4-cyanopiperidine-1-carboxylate] |
| 160 nM | CC(=O)N1CCC(C#N)(Cn2ncc(Cl)c2C(=O)Nc2ncc(C#Cc3ccccc3)cc2C)CC1 [Compound 84, 1-((1-acetyl-4-cyanopiperidin-4-yl)methyl)-4-chloro-N-(3-methyl-5-(phenylethynyl)pyridin-2-yl)-1H-pyrazole-5-carboxamide] |
| 170 nM | CC(=O)N1CCC(Cn2ncc(Cl)c2C(=O)Nc2ncc(C#Cc3ccccc3)cc2C)CC1 [Compound 85, 1-((1-acetylpiperidin-4-yl)methyl)-4-chloro-N-(3-methyl-5-(phenylethynyl)pyridin-2-yl)-1H-pyrazole-5-carboxamide] |
| 170 nM | Cc1cc(C#Cc2ccccc2)cnc1NC(=O)c1c(Cl)cnn1C1CN(C(=O)C2CC2)C1 [Compound 87, 4-chloro-1-(1-(cyclopropanecarbonyl)azetidin-3-yl)-N-(3-methyl-5-(phenylethynyl)pyridin-2-yl)-1H-pyrazole-5-carboxamide] |
| 170 nM | CC(=O)N1CC[C@@H](Cn2ncc(Cl)c2C(=O)Nc2ncc(C#Cc3ccccc3)cc2F)[C@@H](F)C1 [Compound 88, 1-(((3R,4S)-1-acetyl-3-fluoropiperidin-4-yl)methyl)-4-chloro-N-(3-fluoro-5-(phenylethynyl)pyridin-2-yl)-1H-pyrazole-5-carboxamide] |
| 180 nM | Cc1cc(C#Cc2cccs2)cnc1NC(=O)c1c(Cl)cnn1[C@H]1CCOC1 [Compound 89, (S)-4-chloro-N-(3-methyl-5-(thiophen-2-ylethynyl)pyridin-2-yl)-1-(tetrahydrofuran-3-yl)-1H-pyrazole-5-carboxamide] |
| 180 nM | CCNC(=O)N1CCC(n2ncc(Cl)c2C(=O)Nc2ncc(C#Cc3ccccc3)cc2C)CC1 [Compound 90, 4-(4-chloro-5-((3-methyl-5-(phenylethynyl)pyridin-2-yl)carbamoyl)-1H-pyrazol-1-yl)-N-ethylpiperidine-1-carboxamide] |
| 180 nM | CC1CC1C(=O)N1CCC(n2ncc(Cl)c2C(=O)Nc2ncc(C#Cc3ccccc3)cc2F)CC1 (centres unmarked) [Compound 91, 4-chloro-N-(3-fluoro-5-(phenylethynyl)pyridin-2-yl)-1-(1-(2-methylcyclopropane-1-carbonyl)piperidin-4-yl)-1H-pyrazole-5-carboxamide] |
| 180 nM | CCNC(=O)N1CCC(n2ncc(Cl)c2C(=O)Nc2ncc(C#Cc3ccc(F)cc3)cc2C)CC1 [Compound 92, 4-(4-chloro-5-((5-((4-fluorophenyl)ethynyl)-3-methylpyridin-2-yl)carbamoyl)-1H-pyrazol-1-yl)-N-ethylpiperidine-1-carboxamide] |
| 180 nM | CC(=O)N1CC(Cn2ncc(Cl)c2C(=O)Nc2ncc(C#Cc3ccccc3)cc2F)C1 [Compound 93, 1-((1-acetylazetidin-3-yl)methyl)-4-chloro-N-(3-fluoro-5-(phenylethynyl)pyridin-2-yl)-1H-pyrazole-5-carboxamide] |
| 180 nM | CC(=O)N[C@H]1C[C@@H](n2ncc(Cl)c2C(=O)Nc2ncc(C#Cc3ccccc3)cc2F)C1 [Compound 94, 1-(cis-3-acetamidocyclobutyl)-4-chloro-N-(3-fluoro-5-(phenylethynyl)pyridin-2-yl)-1H-pyrazole-5-carboxamide] |
| 180 nM | O=C(Nc1ncc(C#Cc2cccs2)cc1F)c1c(Cl)cnn1C1CCN(C(=O)C2COCCO2)CC1 (centres unmarked) [Compound 95, 1-(1-(1,4-dioxane-2-carbonyl)piperidin-4-yl)-4-chloro-N-(3-fluoro-5-(thiophen-2-ylethynyl)pyridin-2-yl)-1H-pyrazole-5-carboxamide] |
| 180 nM | Cc1cc(C#Cc2ccc(F)cc2)cnc1NC(=O)c1c(Cl)cnn1CCN1CCN(C(=O)C2CC2)CC1 [Compound 96, 4-chloro-1-(2-(4-(cyclopropanecarbonyl)piperazin-1-yl)ethyl)-N-(5-((4-fluorophenyl)ethynyl)-3-methylpyridin-2-yl)-1H-pyrazole-5-carboxamide] |
| 180 nM | Cc1cc(C#Cc2cccs2)cnc1NC(=O)c1c(Cl)cnn1C1CC2(C1)CN(C(=O)C1COCCO1)C2 (centres unmarked) [Compound 97, 1-(2-(1,4-dioxane-2-carbonyl)-2-azaspiro[3.3]heptan-6-yl)-4-chloro-N-(3-methyl-5-(thiophen-2-ylethynyl)pyridin-2-yl)-1H-pyrazole-5-carboxamide] |
